In brackets after ≈: the same amount, converted by molar mass. Like-named read-outs stand apart in the source and are kept apart here. Bridge positions count the residues as written; N and C are the ends. Peptide text beside a SMILES is read from it.
Tests used:
[1] = system: E. faecalis NCTC 12697; details: checkerboard MIC, planktonic E. faecalis NCTC 12697, 37 °C, 24 h, OD 550 nm
Protocol: (§1) The bacteria were cultured, subcultured, diluted, and incubated as the methods of the MIC assay. The pure peptides and antibiotics were weighed and, respectively, dissolved in DMSO and dd water to make the final concentration of 2× MIC. […] Different concentrations of peptide and antibiotic solutions were added to a 96-well plate in the form of a checkerboard grid. The blank control and growth control were still 100 µL medium and 100 µL bacterial culture. The plate was incubated at 37 °C for 24 h. After that, the plate reader was used to monitor the absorbance of each well at 550 nm (The Synergy TM HT, BioTek, Winooski, VT, USA).
(§2) Parameter fractional inhibitory concentration indices (FICIs) were used to evaluate the synergistic effect, and the value of that was calculated as follows:FICI = FICa + FICb FICa = MIC combination peptide/MIC single peptide FICb = MIC combination antibiotic/MIC single antibiotic
(§3) The FICI value was interpreted as “synergy” (FICI ≤ 0.5), “no interaction” (0.5 < FICI ≤ 4), or “antagonism” (FICI > 4).

[2] = system: A. baumannii BAA 747; details: checkerboard MIC, planktonic A. baumannii BAA 747, 37 °C, 24 h, OD 550 nm
Protocol: as §1, §2, §3

[3] = system: P. aeruginosa ATCC 27853 biofilm; format: cell-based, Pseudomonas aeruginosa; details: for MBIC: lowest concentration inhibiting at least 90% of biofilm formation; for MBEC: minimum concentration eradicating at least 99% of the biofilm
Text: (§4) The minimum bactericidal concentration (MBC) is defined as the lowest antibiotic concentration that kills 99.9% of the inoculum. The minimum biofilm inhibitory concentration (MBIC) is the lowest concentration that inhibits at least 90% of the formation of biofilm. The minimum biofilm eradication concentration (MBEC) is the minimum concentration that can eradicate at least 99% of the biofilm. In addition to the eight microorganisms described previously, this experiment was also applied to P. aeruginosa (ATCC 27853, ATCC BAA-2108, P. aeruginosa 01, P. aeruginosa 14).

[4] = system: P. aeruginosa 14 biofilm; format: cell-based, Pseudomonas aeruginosa; details: for MBIC: lowest concentration inhibiting at least 90% of biofilm formation; for MBEC: minimum concentration eradicating at least 99% of the biofilm
Text: as §4

[5] = system: P. aeruginosa ATCC BAA-2108 biofilm; format: cell-based, Pseudomonas aeruginosa; details: for MBIC: lowest concentration inhibiting at least 90% of biofilm formation; for MBEC: minimum concentration eradicating at least 99% of the biofilm
Text: as §4

[6] = system: P. aeruginosa ATCC CRM 9027 biofilm; format: cell-based, Pseudomonas aeruginosa; details: for MBIC: lowest concentration inhibiting at least 90% of biofilm formation; for MBEC: minimum concentration eradicating at least 99% of the biofilm
Text: as §4

[7] = system: P. aeruginosa 01 biofilm; format: cell-based, Pseudomonas aeruginosa; details: for MBIC: lowest concentration inhibiting at least 90% of biofilm formation; for MBEC: minimum concentration eradicating at least 99% of the biofilm
Text: as §4

[8] = system: horse red blood cells; details: horse red blood cells in PBS, 37 °C, 2 h, absorbance 570 nm; positive control 0.1% Triton
Protocol: The pure peptide was dissolved in PBS and then two-fold diluted to obtain a series of concentrations: 512, 256, 128, 64, 32, 16, 8, 4, and 2 μM. A positive control (0.1% Triton) and blank control (PBS) were used. Two millilitres of fresh horse red blood cells were washed in PBS until the supernatant became colourless and clear, and the mixture was then thoroughly mixed. Each mixture contained 100 μL of peptide solution or controls and 100 μL of horse red blood cells, which were then incubated at 37 °C for 2 h and centrifuged at 930× g for 10 min. Subsequently, 100 μL of supernatant from each tube was transferred into a 96-well plate, and the plate reader measured the absorbance at a wavelength of 570 nm. The haemolysis rate was calculated using the following formula:Percentage Haemolysis= (ASample − ABlank)/(APositive − ABlank) × 100%

[9] = system: K. pneumoniae (ATCC 43816); assay: microbe, parasite or virus in culture; format: cell-based, Klebsiella pneumoniae; details: planktonic K. pneumoniae ATCC 43816; for MIC: 37 °C, nine repeats of three independent experiments; for MBC: lowest concentration killing 99.9% of inoculum
Text: (§5) The minimum inhibitory concentration (MIC) is the minimum concentration of an antimicrobial agent that prevents the visible growth of a bacterium or bacteria. The MIC is an important piece of data for research on new antimicrobial agents and helps in the effective selection of antibiotics to improve the success of treatment. The minimum bactericidal concentration (MBC) is defined as the lowest antibiotic concentration that kills 99.9% of the inoculum. This study mainly contained eight different microorganisms, which were Staphylococcus aureus (ATCC 6538), methicillin-resistant Staphylococcus aureus (NCTC 12493), Enterococcus faecalis (NCTC 12697), Escherichia coli (ATCC 8739), Klebsiella pneumoniae (ATCC 43816), Pseudomonas aeruginosa (ATCC CRM 9027), Acinetobacter baumannii (BAA 747), and Candida albicans (ATCC 10231). The bacteria were incubated in the compatible medium at 37 °C overnight.

[10] = system: Yeast; assay: Geometric mean of MICs and TI value; format: cell-based, Candida albicans; details: C. albicans ATCC 10231
Protocol: The therapeutic potential of antimicrobial agents was valued based on their selectivity toward bacteria in reference to erythrocytes. The TI value was calculated from the results of antibacterial and haemolysis experiments of peptides using the following formula:TI value = HC10 / GMMICs.
GM was the geometric mean of MICs against all tested bacteria.

[11] = system: C. albicans (ATCC 10231); format: cell-based, Candida albicans; details: yeast C. albicans ATCC 10231; for MIC: 37 °C, nine repeats of three independent experiments; for MBC: lowest concentration killing 99.9% of inoculum
Text: as §5

[12] = system: A. baumannii (BAA 747); assay: microbe, parasite or virus in culture; format: cell-based, Acinetobacter baumannii; details: planktonic A. baumannii BAA 747; for MIC: 37 °C, nine repeats of three independent experiments; for MBC: lowest concentration killing 99.9% of inoculum
Text: as §5

[13] = system: P. aeruginosa ATCC CRM 9027 biofilm; assay: Peptide and antibiotic co-administration MBIC checkerboard assay; format: cell-based, Pseudomonas aeruginosa; details: 24 h, crystal violet, 595 nm
Text: (§6) The plate was then carefully cleaned under running water.

[14] = system: MRSA (NCTC 12493); assay: microbe, parasite or virus in culture; format: cell-based, methicillin-resistant Staphylococcus aureus; details: planktonic MRSA NCTC 12493; for MIC: 37 °C, nine repeats of three independent experiments; for MBC: lowest concentration killing 99.9% of inoculum
Text: as §5

[15] = system: E. faecalis NCTC 12697 biofilm; assay: Peptide and antibiotic co-administration MBIC checkerboard assay; format: cell-based, Enterococcus faecalis; details: 24 h, crystal violet, 595 nm
Text: as §6

[16] = system: E. faecalis NCTC 12697 biofilm; format: cell-based, Enterococcus faecalis; details: for MBIC: lowest concentration inhibiting at least 90% of biofilm formation; for MBEC: minimum concentration eradicating at least 99% of the biofilm
Text: as §4

[17] = system: S. aureus ATCC 6538 biofilm; format: cell-based, Staphylococcus aureus; details: for MBIC: lowest concentration inhibiting at least 90% of biofilm formation; for MBEC: minimum concentration eradicating at least 99% of the biofilm
Text: as §4

[18] = system: S. aureus (ATCC 6538); assay: microbe, parasite or virus in culture; format: cell-based, Staphylococcus aureus; details: planktonic S. aureus ATCC 6538; for MIC: 37 °C, nine repeats of three independent experiments, read-out: MIC; for MBC: lowest concentration killing 99.9% of inoculum, read-out: MBC
Text: as §5

[19] = peptide combined with gentamicin
[20] = peptide combined with levofloxacin
[21] = peptide combined with vancomycin

| Structure (SMILES) | FICI ([1]; peptide combined with cefepime) | FICI [1, 19] | FICI [1, 20] | FICI [1, 21] | FICI ([2]; peptide combined with cefepime) | FICI [2, 19] | FICI [2, 20] | FICI [2, 21] | MBIC [3] | MBEC [3] | MBIC [4] | MBEC [4] | MBIC [5] | MBEC [5] | MBIC [6] | MBEC [6] | MBIC [7] | MBEC [7] | HC10 [8] [µM] | MIC [9] [µM] | further results |
| --- | --- | --- | --- | --- | --- | --- | --- | --- | --- | --- | --- | --- | --- | --- | --- | --- | --- | --- | --- | --- | --- |
| CC[C@H](C)[C@H](NC(=O)[C@H](CCCCN)NC(=O)[C@H](CCCCN)NC(=O)CNC(=O)[C@H](C)NC(=O)CNC(=O)[C@H](CC(C)C)NC(=O)[C@@H](NC(=O)CNC(=O)[C@H](CO)NC(=O)[C@H](CC(C)C)NC(=O)[C@H](CC(C)C)NC(=O)CN)C(C)C)C(=O)N[C@H](C(=O)N[C@H]1CSSC[C@@H](C(=O)O)NC(=O)[C@H](CCCNC(=N)N)NC(=O)CNC(=O)[C@H](CO)NC(=O)[C@H](CC(C)C)NC(=O)CNC1=O)C(C)C [Nigrosin-6VL] (H-GLLSGVLGAGKKIVCGLSGRC-OH; disulfide 15-21) | 0.125 | 0.625 | 0.625 | 0.625 | 1 | 0.1875 | >4 | 1.25 | >128/>128 µM | >128/>128 µM | >128/>128 µM | >128/>128 µM | >128/>128 µM | >128/>128 µM | >128/>128 µM | >128/>128 µM | >128/>128 µM | >128/>128 µM | >256 | 128 (≈ 254 µg/mL) | MBC [9]: 128 µM (≈ 254 µg/mL); GM (geometric mean of MICs), Yeast [10]: 128.00 µM; MIC [11]: 128 µM (≈ 254 µg/mL); MBC [11]: > 128 µM; MIC [12]: > 128 µM; MBC [12]: > 128 µM; Biofilm FICI ([13]; peptide combined with cefepime): 0.3125; Biofilm FICI [13, 19]: 0.5; MIC [14]: > 128 µM; MBC [14]: > 128 µM; Biofilm FICI ([15]; peptide combined with cefepime): 0.5; Biofilm FICI [15, 19]: 0.5; MBIC [16]: >128/>128 µM; MBEC [16]: >128/>128 µM; MBIC [17]: 128/>128 µM; MBEC [17]: 128/>128 µM; MIC [18]: 16 µM (≈ 31.8 µg/mL); MBC [18]: 32 µM (≈ 63.6 µg/mL) |
| CC[C@H](C)[C@H](NC(=O)[C@H](CCCCN)NC(=O)[C@H](CCCCN)NC(=O)CNC(=O)[C@H](C)NC(=O)[C@H](CCCNC(=N)N)NC(=O)[C@H](CC(C)C)NC(=O)[C@@H](NC(=O)[C@H](C)NC(=O)[C@H](CCCNC(=N)N)NC(=O)[C@H](CC(C)C)NC(=O)[C@H](CC(C)C)NC(=O)CN)C(C)C)C(=O)N[C@H](C(=O)N[C@H]1CSSC[C@@H](C(=O)O)NC(=O)[C@H](CCCNC(=N)N)NC(=O)CNC(=O)[C@H](CO)NC(=O)[C@H](CC(C)C)NC(=O)CNC1=O)C(C)C [Peptide 2170-2R] (H-GLLRAVLRAGKKIVCGLSGRC-OH; disulfide 15-21) | 0.1562 | 0.625 | 0.625 | 0.625 | 1.5 | 0.25 | >4 | 0.625 | 8 µM | 16 µM | >128/>128 µM | >128/>128 µM | >128/>128 µM | >128/>128 µM | >128/>128 µM | >128/>128 µM | 32 µM | 64 µM | >256 | 32 (≈ 69.4 µg/mL) | MBC [9]: 32 µM (≈ 69.4 µg/mL); GM (geometric mean of MICs), Yeast [10]: 64.00 µM; MIC [11]: 64 µM (≈ 139 µg/mL); MBC [11]: 128 µM (≈ 278 µg/mL); MIC ([12]; read-out: MIC): 4 µM (≈ 8.67 µg/mL); MBC ([12]; read-out: MBC): 8 µM (≈ 17.3 µg/mL); Biofilm FICI ([13]; peptide combined with cefepime): 0.5; Biofilm FICI [13, 19]: 1; MIC [14]: 16 µM (≈ 34.7 µg/mL); MBC [14]: 16 µM (≈ 34.7 µg/mL); Biofilm FICI ([15]; peptide combined with cefepime): 0.375; MBIC [16]: 32 µM; MBEC [16]: > 128 µM; MBIC [17]: 4 µM; MBEC [17]: 16 µM; MIC [18]: 4 µM (≈ 8.67 µg/mL); MBC [18]: 8 µM (≈ 17.3 µg/mL) |

Reference: paper PMC11274128, “Modification and Synergistic Studies of a Novel Frog Antimicrobial Peptide against Pseudomonas aeruginosa Biofilms” (Antibiotics, 2024)
